Literature values, collected in patent US6458790B2, “Substituted piperidines as melanocortin receptor agonists” (Merck & Co., Inc., priority 2000, dated 2002).

Assays:
[1] = system: men with erectile dysfunction; conditions: for duration of effect / onset of action: after an oral dose; for share of men/patients in whom effective (adequate response): oral
[2] = system: males with psychogenic erectile dysfunction
[3] = subcutaneous injection formulation

| Compound | duration of effect [1] | onset of action [1] | share of men/patients in whom effective (adequate response) [1] | absorption into the systemic circulation ([2]; human, in vivo, po) | response rate ([2]; injected intramuscularly or subcutaneously) | duration of action [2, 3] | time to onset of erection [2, 3] |
| --- | --- | --- | --- | --- | --- | --- | --- |
| CCCc1nn(C)c2c(=O)[nH]c(-c3cc(S(=O)(=O)N4CCN(C)CC4)ccc3OCC)nc12 [Sildenafil] | about 4 hours | 30 to 60 min | about 70% | – | – | – | – |
| Cc1ccc(N(CC2=NCCN2)c2cccc(O)c2)cc1 [phentolamine] | 2 h | 5 to 30 min | 35-40% | – | – | – | – |
| Ac-Nle-c[Asp-His-DPhe-Arg-Trp-Lys]-NH2 [MT-II] | – | – | – | not absorbed into the systemic circulation | 75% | approximately 2.5 hours | 10 to 20 min |
